This note sets out measurements from patent US11234982B2, “Methods for treating ocular surface pain” (NOVARTIS AG, priority 2019, dated 2022).

This series can be described thus: PRK study: plasma pharmacokinetics of compound I. The format is in vivo, human. Conditions: for Tmax: read-out: Tmax, Min, Max. How it is done: Pharmacokinetic (PK) samples were collected at the time points defined in the visit schedule supra, with PK blood collection windows shown in Table 9.
All blood samples (3 mL) were taken from the arm by either direct venipuncture or an indwelling catheter inserted in a forearm vein. After each tube of blood was drawn, it was immediately inverted gently 8-10 times to ensure the mixing of tube contents with anticoagulant (3 mL K2 EDTA). Prolonged sample contact with the rubber stopper was avoided and the tubes were placed upright in a test tube rack surrounded by wet ice until centrifugation.
Within 30 minutes, the sample was centrifuged at about 5° C. for 10 minutes at approximately 2000 G (or the sample was placed on ice and centrifuged at room temperature). Immediately after centrifugation, the whole supernatant (approx. 1.5 mL) was transferred in the first 1.8 mL NUNC 2D barcoded cryovial. After mixing the plasma thoroughly, half of the plasma was transferred from the first cryovial to the second cryovial and the caps were secured. Appropriate PK cryolabels were attached to each cryovial and the labels were secured with clear tape. The cryovials were frozen immediately over dry ice then, kept frozen at ≤−20° C. until shipment to the central lab. The vials were shipped in biweekly batches.
Compound I was quantified in plasma using a validated LC-MS/MS method; the lower limit of quantification (LLOQ) was 0.05 ng/mL. Concentrations were expressed in ng per mL units. When feasible, bandage contact lenses (BCL) exposed to study drug were collected and analyzed for residual drug exposure after treatment (LLOQ: 5.00 ng/mL in 0.55 mL of extraction fluid, or 2.75 ng/BCL). Concentrations below the LLOQ were reported as “zero” and missing data were labeled as such.
The following PK parameters were determined as relevant using the actual recorded sampling times and non-compartmental method with Phoenix™ WinNonlin® (Version 6.4): Cmax, Tmax, AUClast (calculated), Clast and Tlast from the plasma concentration-time data. Pre-dose concentrations were determined by inspection at nominal 0, 24 and 72 hours. The linear trapezoidal rule was used for AUClast calculation. No PK parameters were calculated from the bandage contact lenses compound I concentration data.

Where [1] appears, read: across 4 days of repeated QID dosing.
[2] abbreviates: plasma, Day 1 (first dose), 2.5% topical ocular.
Where [3] appears, read: plasma, Day 1 (first dose), 2.5% topical ocular, N 34.
The mark [4] stands for this setting: plasma, Day 4 (13th dose), 2.5% four times daily.

Like-named read-outs stand apart in the source and are kept apart here.

On to `CC(C)c1nc2cc(O)ccc2c(=O)n1-c1ccc(C#N)cc1` [Compound I, 4-(7-hydroxy-2-isopropyl-4-oxo-4H-quinazolin-3-yl)-benzonitrile], for which, for the setting “2.5% 4 times daily”, the “Mean AUClast increase over the 4 days (Day 4 vs Day 1)” value is listed as 6.9 fold and the “Mean Cmax after 13th dose on Day 4 relative to first dose on Day 1” value is reported as 5.3 fold. Further, under setting [1], the “AUClast, range” value is 0.261 to 14.5 ng·h/mL and the “Observed Cmax, range” value was 0.195 to 7.56 ng/mL. Besides, the “Median plasma Tmax” value (after either single (first dose) or repeated 4 times daily topical ocular administration) was “approximately 0.5 hours”. Where the note is “human, plasma, topical, 2.5 % (four times daily), across 4 days of repeated QID dosing, read-out: Observed Cmax, range”, the Cmax – broadly, the highest concentration seen after dosing – fell in the range of 0.195 to 7.56 ng/mL. Further, the Tmax (in general, the time at which the peak concentration occurs) (human, topical or ocular, plasma, Day 1 (first dose), 2.5% topical ocular) lay within 10 to 120 min. For the same compound, the Tmax (human, topical, plasma, Day 4 (13th dose), 2.5% four times daily) fell in the range of 0 to 125 min. Under setting [2], the “AUClast, Median” value came out at 0.569 ng·h/mL; the “Cmax, Median” value is listed as 0.375 ng/mL; the “Tmax, Median” value amounted to 27.5 min. Moreover, under setting [3], the “AUClast, Mean (SD)” value worked out at 0.638 ng·h/mL and the “Cmax, Mean (SD)” value was found to be 0.454 ng/mL. Under setting [4], the “AUClast, Median” value is 3.42 ng·h/mL; the “Cmax, Median” value worked out at 2.07 ng/mL; the “Tmax, Median” value was determined as 28 min. Further, where the note is “plasma, Day 4 (13th dose), 2.5% four times daily, N 31”, the “AUClast, Mean (SD)” value amounted to 4.38 ng·h/mL. Moreover, under “plasma, Day 4 (13th dose), 2.5% four times daily, N 33”, the “Cmax, Mean (SD)” value is 2.40 ng/mL. The “Trough mean plasma concentration (end of 6-hour dose interval)” value (prior to the 5th dose on Day 2 (24 hr post 1st dose)) is recorded as 1.25 ng/mL. Also, the “Trough mean plasma concentration (end of 6-hour dose interval)” value (prior to the 13th dose on Day 4 (72 hr post 1st dose)) is 1.99 ng/mL.
